Source: publication PMC5741980 (Journal of Experimental Pharmacology, 2017)
Peptide text beside a SMILES is read from it.

Columns and labels:
human V2 receptors [1] = target: T1, human V2 receptors (Homo sapiens, UniProt P30518); test: Competitive binding assay, [3H]AVP, CHO-K1 cell membrane homogenates
human V1 receptors [2] = target: T2, human V1 receptors (Homo sapiens, UniProt P37288); test: Functional assay, intracellular calcium mobilization; format: cell-based; settings: compared with maximal effect of AVP
T2 sequence (P37288 whole entry): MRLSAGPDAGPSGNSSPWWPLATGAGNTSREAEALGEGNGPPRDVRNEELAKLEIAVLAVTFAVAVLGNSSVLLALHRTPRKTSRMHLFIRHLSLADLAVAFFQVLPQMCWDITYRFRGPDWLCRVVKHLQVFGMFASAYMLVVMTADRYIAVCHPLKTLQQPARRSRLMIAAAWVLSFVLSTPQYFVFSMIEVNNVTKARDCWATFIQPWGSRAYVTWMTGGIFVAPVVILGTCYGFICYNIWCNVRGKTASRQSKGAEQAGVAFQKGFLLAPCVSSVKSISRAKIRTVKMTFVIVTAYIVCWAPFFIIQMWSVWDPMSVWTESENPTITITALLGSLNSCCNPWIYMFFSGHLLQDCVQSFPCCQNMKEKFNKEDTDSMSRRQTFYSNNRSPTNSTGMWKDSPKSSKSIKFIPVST

human V2 receptors [3] = target: T1, human V2 receptors; test: Functional assay, cAMP production; format: cell-based; settings: compared with maximal effect of AVP
rat V1 receptors [4] = settings: intracellular calcium mobilization; cited from earlier work
human V1 receptors [5] = target: T2, human V1 receptors; settings: cited from earlier work; for Ki: read-out: mean binding affinity (Ki) for human V1 receptors, human vascular smooth muscle cells
human V1 receptors [6] = target: T2, human V1 receptors; test: Competitive binding assay, [3H]AVP, CHO-S cell membrane homogenates; settings: for affinity (selectivity) for V1 higher than for V2: this study
human V1 receptors [7] = target: T2, human V1 receptors; settings: intracellular calcium mobilization; cited from earlier work
V1 = settings: cited from earlier work; for EC50: read-out: EC50 for V1 activation, recombinant system, functional assay
V1 activation = settings: rat model of portal hypertension, cited from earlier work
rat V1 receptors [8] = settings: cited from earlier work

T1 sequence (P30518 whole entry): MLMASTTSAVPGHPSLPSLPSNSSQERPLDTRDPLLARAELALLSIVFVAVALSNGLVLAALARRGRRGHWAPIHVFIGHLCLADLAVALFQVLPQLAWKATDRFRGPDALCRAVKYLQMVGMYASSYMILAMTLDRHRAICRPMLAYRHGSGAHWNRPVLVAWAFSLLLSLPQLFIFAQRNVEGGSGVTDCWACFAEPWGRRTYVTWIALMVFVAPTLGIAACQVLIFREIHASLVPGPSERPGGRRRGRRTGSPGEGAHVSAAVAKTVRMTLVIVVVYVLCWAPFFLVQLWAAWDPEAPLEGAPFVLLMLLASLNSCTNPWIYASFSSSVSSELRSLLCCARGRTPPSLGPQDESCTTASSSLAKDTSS

binding affinity less than that of AVP, V2 receptors (human V2 receptors [1]; versus AVP) | agonist type at V1 receptors (human V1 receptors [2]) | agonist type at V2 receptors (human V2 receptors [3]) | affinity (selectivity) for V1 higher than for V2 (human V1 receptors [6]) | binding affinity less than that of AVP, V1 receptors (human V1 receptors [6]; versus AVP) | binding affinity less than that of LVP, V2 receptors (human V2 receptors [1]; versus LVP) | binding affinity less than that of LVP, V1 receptors (human V1 receptors [6]; versus LVP) | Compound | mean maximal cell activation at rat V1 receptors (rat V1 receptors [4]) [%] | Ki (human V1 receptors [5]) [µM] | mean maximal cell activation at human V1 receptors (human V1 receptors [7]) [%] | EC50 (V1) [µM] | mean potency for V1 activation in vasopressor tests (V1 activation) [IU×µmol^−1] | mean potency less than that of vasopressin (V1 activation; vasopressor tests) | difference in binding versus LVP at rat V1 receptors (rat V1 receptors [8]) [fold] | selectivity for V1 receptors higher than for V2 receptors (human V1 receptors [5]; Colson et al) [fold] | binding affinity less than that of LVP, human V1 receptors (human V1 receptors [5]; versus LVP) | EC50 higher than that for LVP (V1; versus LVP)
about 12 fold | full agonist | full agonist | approximately sixfold | about twofold | – | – | NCCCC[C@H](NC(=O)[C@@H]1CCCN1C(=O)[C@@H]1CSSC[C@H](N)C(=O)N[C@@H](Cc2ccc(O)cc2)C(=O)N[C@@H](Cc2ccccc2)C(=O)N[C@@H](CCC(N)=O)C(=O)N[C@@H](CC(N)=O)C(=O)N1)C(=O)NCC(N)=O [LVP, [Lys8]-vasopressin] | 100 | 0.01 | 100 | 0.00093 | – | – | – | – | – | –
– | partial agonist | full agonist | approximately sixfold | – | about 700 fold | about 600 fold | NCCCC[C@H](NC(=O)[C@@H]1CCCN1C(=O)[C@@H]1CSSC[C@H](NC(=O)CNC(=O)CNC(=O)CN)C(=O)N[C@@H](Cc2ccc(O)cc2)C(=O)N[C@@H](Cc2ccccc2)C(=O)N[C@@H](CCC(N)=O)C(=O)N[C@@H](CC(N)=O)C(=O)N1)C(=O)NCC(N)=O [Terlipressin, N^α-tryglycl-8-lysine-vasopressin] (HELM PEPTIDE1{G.G.G.C.Y.F.Q.N.C.P.K.G.[am]}$PEPTIDE1,PEPTIDE1,4:R3-9:R3$$$V2.0; bridges inferred) | 66 | 1.23 | 48 | 0.148 | 9 | about 66 fold | ~700 | 1.9 | about 120 fold | about 150 fold
– | – | – | – | – | – | – | vasopressin: vasopressin comparator in Bernadich et al rat vasopressor tests; probably AVP | – | – | – | – | 614 | – | – | – | – | –
